The target of experiment [1] is human recombinant histamine H1 receptor (Homo sapiens, UniProt P35367). Description: Histamine H1 radioligand binding assay ([3H]Pyrilamine). The note with it: percent inhibition of specific binding of […] [3H]Pyrilamine; compounds screened at 1 μM or lower. How it is done:
To evaluate in radioligand binding assays the activity of compounds of the invention, human recombinant histamine H1 receptor expressed in Chinese hamster ovary (CHO) cells (De Backer, M. D. et al., Biochem. Biophys. Res. Comm. 197(3):1601, 1993) in a modified Tris-HCl buffer (50 mM Tris-HCl, pH 7.4, 2 mM MgCl2, 100 mM NaCl, 250 mM Sucrose) was used. Compounds of the invention were incubated with 1.2 nM [^3H]Pyrilamine for 180 min at 25° C. Non-specific binding was estimated in the presence of 1 μM pyrilamine. Receptor proteins were filtered and washed, the filters were then counted to determine [^3H]Pyrilamine specifically bound. Compounds were screened at 1 μM or lower, using 1% DMSO as vehicle. Biochemical assay results are presented as the percent inhibition of specific binding in Table 2.

Experiment [2] has as its target T1, human recombinant adrenergic α1D receptor (Homo sapiens, UniProt P25100).
T1 construct: expressed in transfected cells; host or cells: human embryonic kidney (HEK-293) cells
T1 sequence (P25100 1-572): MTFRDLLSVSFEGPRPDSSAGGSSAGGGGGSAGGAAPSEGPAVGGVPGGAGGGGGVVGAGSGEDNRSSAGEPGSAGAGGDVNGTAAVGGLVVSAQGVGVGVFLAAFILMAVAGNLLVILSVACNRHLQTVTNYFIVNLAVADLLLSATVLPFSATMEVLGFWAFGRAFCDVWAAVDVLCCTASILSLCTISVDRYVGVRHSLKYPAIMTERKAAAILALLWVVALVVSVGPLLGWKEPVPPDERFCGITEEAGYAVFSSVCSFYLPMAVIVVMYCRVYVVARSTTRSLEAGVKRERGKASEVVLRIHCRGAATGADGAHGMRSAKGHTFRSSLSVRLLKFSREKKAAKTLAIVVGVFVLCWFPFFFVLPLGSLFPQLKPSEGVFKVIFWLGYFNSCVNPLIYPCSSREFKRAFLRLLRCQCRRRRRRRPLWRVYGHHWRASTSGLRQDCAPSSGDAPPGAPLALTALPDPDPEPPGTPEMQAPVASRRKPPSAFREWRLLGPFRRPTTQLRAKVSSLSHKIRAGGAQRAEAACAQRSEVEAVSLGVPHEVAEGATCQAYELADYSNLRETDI
The experiment is described as follows: Adrenergic α1D radioligand binding assay ([3H]Prozosin). The settings on record: 0.6 nM [3H]Prozosin, read-out: Percent Inhibition of ligand binding, Adrenergic (1 μM) α1D. How it is done: Compounds of invention were incubated with 0.6 nM [^3H]Prozosin for 60 min at 25° C. Non-specific binding was estimated in the presence of 10 μM phentolamine. Receptor proteins were filtered and washed, the filters were then counted to determine [^3H]Prozosin specifically bound. Compounds were screened at 1 μM or lower, using 1% DMSO as vehicle. Biochemical assay results are presented as the percent inhibition of specific binding in Table 3.

For experiment [3], the target named is human recombinant dopamine D2L receptor (Homo sapiens, UniProt P14416). The experiment is described as follows: Dopamine D2L radioligand binding assay ([3H]Spiperone). The settings on record: for inhibition at 1 µM: read-out: Percent Inhibition of ligand binding, Dopamine (1 μM) D2L. The method, then:
Compounds of the invention were incubated with 0.16 nM [^3H]Spiperone for 120 min at 25° C. Non-specific binding was estimated in the presence of 10 μM Haloperidol. Receptor proteins were filtered and washed, the filters were then counted to determine [^3H]Spiperone specifically bound. Compounds were screened at 1 μM or lower, using 1% DMSO as vehicle. Biochemical assay results are presented as the percent inhibition of specific binding in Table 3.

For experiment [4], the target named is T2, human recombinant serotonin (5-Hydroxytryptamine) 5-HT2A receptor (Homo sapiens, UniProt P28223).
T2 construct: expressed in transfected cells; host or cells: Chinese hamster ovary (CHO-K1) cells
T2 sequence (P28223 whole entry): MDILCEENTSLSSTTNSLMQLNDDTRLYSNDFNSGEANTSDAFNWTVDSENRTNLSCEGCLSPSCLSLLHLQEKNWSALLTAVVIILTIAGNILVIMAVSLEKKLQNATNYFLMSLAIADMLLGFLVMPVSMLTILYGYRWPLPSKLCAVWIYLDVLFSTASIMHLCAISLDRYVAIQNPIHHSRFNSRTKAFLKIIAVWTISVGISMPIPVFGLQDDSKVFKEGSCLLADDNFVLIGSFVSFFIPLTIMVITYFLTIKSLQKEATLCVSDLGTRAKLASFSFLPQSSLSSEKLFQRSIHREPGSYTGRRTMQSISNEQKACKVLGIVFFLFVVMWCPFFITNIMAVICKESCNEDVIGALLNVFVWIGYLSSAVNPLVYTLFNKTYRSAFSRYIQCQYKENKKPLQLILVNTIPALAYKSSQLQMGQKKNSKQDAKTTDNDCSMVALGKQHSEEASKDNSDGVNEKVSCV
Description: Serotonin 5-HT2A radioligand binding assay ([3H]Ketanserin). The settings on record: 0.5 nM [3H]Ketanserin, read-out: Percent Inhibition of ligand binding, Serotonin (1 μM) 5-HT2A. How it is done: Compounds of the invention were incubated with 0.5 nM [^3H]Ketanserin for 60 min at 25° C. Non-specific binding was estimated in the presence of 1 μM Mianserin. Receptor proteins were filtered and washed, the filters were then counted to determine [^3H]Ketanserin specifically bound. Compounds were screened at 1 μM or lower, using 1% DMSO as vehicle. Biochemical assay results are presented as the percent inhibition of specific binding in Table 4.

Experiment [5] concerns the target T3, human recombinant serotonin (5-Hydroxytryptamine) 5-HT6 receptor (Homo sapiens, UniProt P50406).
T3 construct: expressed in transfected cells; host or cells: human HeLa cells
Description: Serotonin 5-HT6 radioligand binding assay ([3H]LSD). The settings on record: 1.5 nM [3H]LSD, read-out: Percent Inhibition of ligand binding, Serotonin (1 μM) 5-HT6. The method, then: Compounds of the invention were incubated with 1.5 nM [3H]Lysergic acid diethylamide (LSD) for 120 min at 37° C. […] Receptor proteins were filtered and washed, the filters were then counted to determine [3H]LSD specifically bound. Compounds were screened at 1 μM or lower, using 1% DMSO as vehicle. Biochemical assay results are presented as the percent inhibition of specific binding in Table 4.

T3 sequence (P50406 whole entry): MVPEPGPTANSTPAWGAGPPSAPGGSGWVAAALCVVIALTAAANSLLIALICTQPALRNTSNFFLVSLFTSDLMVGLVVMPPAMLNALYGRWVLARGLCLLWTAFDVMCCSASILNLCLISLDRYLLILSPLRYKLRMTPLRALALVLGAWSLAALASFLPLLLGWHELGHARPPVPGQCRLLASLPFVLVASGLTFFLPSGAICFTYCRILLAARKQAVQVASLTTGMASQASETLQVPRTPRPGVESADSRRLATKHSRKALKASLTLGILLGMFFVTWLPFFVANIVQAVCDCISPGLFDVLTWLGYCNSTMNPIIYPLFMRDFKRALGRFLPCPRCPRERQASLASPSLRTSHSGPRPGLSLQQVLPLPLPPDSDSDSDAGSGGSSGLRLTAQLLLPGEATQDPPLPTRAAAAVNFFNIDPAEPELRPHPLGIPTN
Chain of human recombinant dopamine D2L receptor (P14416 whole entry): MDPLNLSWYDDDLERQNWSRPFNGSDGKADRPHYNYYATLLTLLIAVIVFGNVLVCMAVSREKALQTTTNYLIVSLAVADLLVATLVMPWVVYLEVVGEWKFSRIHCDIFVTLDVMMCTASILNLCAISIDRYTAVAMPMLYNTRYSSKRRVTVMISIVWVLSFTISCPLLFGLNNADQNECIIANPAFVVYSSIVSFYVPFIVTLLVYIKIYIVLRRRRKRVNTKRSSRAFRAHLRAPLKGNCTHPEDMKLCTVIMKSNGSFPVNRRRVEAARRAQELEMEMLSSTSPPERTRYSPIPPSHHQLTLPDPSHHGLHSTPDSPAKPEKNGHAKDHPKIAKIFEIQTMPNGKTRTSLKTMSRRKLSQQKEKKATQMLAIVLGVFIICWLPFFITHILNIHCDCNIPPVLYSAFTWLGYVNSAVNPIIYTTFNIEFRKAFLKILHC
Chain of human recombinant histamine H1 receptor (P35367 whole entry): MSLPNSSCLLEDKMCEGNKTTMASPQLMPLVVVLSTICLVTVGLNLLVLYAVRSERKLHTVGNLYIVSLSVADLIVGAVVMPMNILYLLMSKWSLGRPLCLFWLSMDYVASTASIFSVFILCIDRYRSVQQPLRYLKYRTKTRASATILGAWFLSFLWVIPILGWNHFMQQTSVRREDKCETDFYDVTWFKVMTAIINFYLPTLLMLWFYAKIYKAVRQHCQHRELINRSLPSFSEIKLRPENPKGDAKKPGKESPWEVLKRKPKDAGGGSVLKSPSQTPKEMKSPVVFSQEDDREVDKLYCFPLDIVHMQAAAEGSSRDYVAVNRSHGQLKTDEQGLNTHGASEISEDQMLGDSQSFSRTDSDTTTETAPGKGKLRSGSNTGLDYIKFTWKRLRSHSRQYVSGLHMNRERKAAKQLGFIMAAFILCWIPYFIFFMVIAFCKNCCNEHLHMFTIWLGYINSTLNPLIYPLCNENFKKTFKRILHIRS

As usually defined, the inhibition is the relative decrease from the control value, in per cent. In the case of `Cc1ccc2c(c1)c1c(n2CC(CC(=O)O)c2ccc(F)cc2)CCN(C)C1` (centres unmarked) [Compound 7, 4-(2,8-dimethyl-3,4-dihydro-1H-pyrido[4,3-b]indol-5(2H)-yl)-3-(4-fluorophenyl)butanoic acid], in experiment [1], the “Binding Data (% Inhibition) Histamine Binding H1” value was −1%. The inhibition at 1 µM was 21% in experiment [2], -10% in experiment [3], 9% in experiment [4] and -3% in experiment [5].
The like results for `Cc1ccc2c(c1)c1c(n2CC2(c3ccc(F)cc3)OCCO2)CCN(C)C1` [Compound 3, 5-((2-(4-fluorophenyl)-1,3-dioxolan-2-yl)methyl)-2,8-dimethyl-2,3,4,5-tetrahydro-1H-pyrido[4,3-b]indole] were, in that order, 86%, 60%, 45%, 99% and 103%.
For `CN1CCc2c(c3cc(Cl)ccc3n2CC2(c3ccc(F)cc3)OCCO2)C1` [Compound 4, 8-chloro-5-((2-(4-fluorophenyl)-1,3-dioxolan-2-yl)methyl)-2-methyl-2,3,4,5-tetrahydro-1H-pyrido[4,3-b]indole] the same measures were 87%, 35%, 58%, 99% and 104%.
The like results for `CNC(=O)CC(Cn1c2c(c3cc(C)ccc31)CN(C)CC2)c1ccc(F)cc1` (centres unmarked) [Compound 8, 4-(2,8-dimethyl-3,4-dihydro-1H-pyrido[4,3-b]indol-5(2H)-yl)-3-(4-fluorophenyl)-N-methylbutanamide] were, in that order, 6%, 87%, 14%, 85% and 63%.
For the compound `CN1CCc2c(c3cc(Cl)ccc3n2CC2(c3ccc(Cl)cc3)OCCO2)C1` [Compound 5, 8-chloro-5-((2-(4-chlorophenyl)-1,3-dioxolan-2-yl)methyl)-2-methyl-2,3,4,5-tetrahydro-1H-pyrido[4,3-b]indole], the “Binding Data (% Inhibition) Histamine Binding H1” value in experiment [1] is 90%. The inhibition at 1 µM in experiment [2] worked out at 16%; in experiment [3] it was 53%; in experiment [4] it was 99%; in experiment [5] it was 85%.
Consider `CCOC(=O)CC(Cn1c2c(c3cc(C)ccc31)CN(C)CC2)c1ccc(F)cc1` (centres unmarked) [Compound 6, ethyl 4-(2,8-dimethyl-3,4-dihydro-1H-pyrido[4,3-b]indol-5(2H)-yl)-3-(4-fluorophenyl)butanoate], for which the inhibition at 1 µM in experiment [2] came out at 106%; in experiment [3], 24%; in experiment [4] it was 95%; in experiment [5], 102%. Moreover, in experiment [3], the “Percent Inhibition of ligand binding, Dopamine (1 μM) D2L” value was 31%.
As for `Cc1ccc2c(c1)c1c(n2CC2(c3ccccc3)OCCO2)CCN(C)C1` [Compound 2, 2,8-dimethyl-5-((2-phenyl-1,3-dioxolan-2-yl)methyl)-2,3,4,5-tetrahydro-1H-pyrido[4,3-b]indole], the “Binding Data (% Inhibition) Histamine Binding H1” value in experiment [1] came out at 71%. In addition, the inhibition at 1 µM in experiment [2] is 56%; in experiment [3], 51%; in experiment [4] it was 93%; in experiment [5] it was 102%.

Source of the values: patent US8927571B2, “Pyrido[4,3-B]indoles and methods of use” (Medivation Technologies, Inc., priority 2009, dated 2015).
